Laboratory results as given in BindingDB's records for doi:10.1016/j.ejmech.2015.04.052 (University of Barcelona, 2015).

Tests used:
[1] = Displacement of [3H]-SCH23390 from dopamine D1 receptor (unknown origin) expressed in sheep striatum membranes after […] by scintillation counting analysis
[2] = Displacement of [3H]-R-PIA from adenosine A1 receptor (unknown origin) expressed in sheep striatum membranes after 2 hrs by scintillation counting analysis
[3] = Displacement of [3H]-YM09151-2 from dopamine D2 receptor (unknown origin) expressed in sheep striatum membranes assessed as low affinity constant after 2 hrs by scintillation counting analysis
[4] = Displacement of [3H]-YM09151-2 from dopamine D2 receptor (unknown origin) expressed in sheep striatum membranes assessed as high affinity constant after 2 hrs by scintillation counting analysis

SMILES | Kd [1] [µM] | Kd [2] [µM] | Kd [3] [µM] | Kd [4] [µM]
CCCC[C@H](NC(=O)[C@H]1CC[C@@H]2c3[nH]c4ccccc4c3CCN2C1)C(=O)N[C@@H](Cc1ccc(F)c(F)c1)C(=O)N[C@@H](CCCCN)C(N)=O | 1.3 | > 100 | 8 | 0.19
CCCC[C@H](NC(=O)[C@H]1CC[C@@H]2c3[nH]c4ccccc4c3CCN2C1)C(=O)N[C@@H](Cc1ccc(O)cc1)C(=O)N[C@@H](CCCCN)C(N)=O | 1.2 | > 100 | – | 4.7
